Reference: patent US11149135B2, “Application of cyclodextrins (CDS) for remediation of perfluoroalkyl substances (PFASS)” (THE FLORIDA INTERNATIONAL UNIVERSITY BOARD OF TRUSTEES, priority 2017, dated 2021)

What was measured:
Format in all cases: binding
[1] = 19F NMR titration, average association constants of PFECAs with β-CD; conditions: for Average association constant with β-CD (1:1): 1:1 β-CD:PFECA (unmarked values are 1:1); for Average association constant with β-CD (1:1) / Average association constant with β-CD (2:1): pH 7; for Decrease (1:1): decrease of 1:1 β-CD association constant versus legacy PFAS of the same chain length; for Emerging PFAS Kassoc (1:1): 1:1 (unmarked values taken as 1:1); for association constant with β-CD: 1:1 β-CD:PFECA; for Average association constant with β-CD (2:1): 2:1 β-CD:PFECA
Experimental: (§1) ^19F NMR spectroscopy was performed with a 400 MHz Bruker instrument with a quad probe (operating at 376.498 MHz for 19F). Hexafluorobenzene was used as the internal standard with a chemical shift of −164.9 ppm. For the titration experiments, the chemical shift of each peak was recorded, and the 1:1 and 2:1 association constants were calculated in GraphPad Prism and Mathworks Matlab by Ramos Cabrer et al.'s, Langmuir 1999, 15, 5489-5495 method.
(§2) The ^19F NMR spectrum of each PFECA was monitored as a function of CD concentration. The individual CD:PFECA association constants were determined via nonlinear least-squares regression analysis of the change in observed chemical shift. The association constants determined for individual fluorines were then averaged to find the average association constant for each PFECA with each CD.

[2] = 19F NMR titration, average association constants of PFECAs with γ-CD; design: key: *: no significant association; conditions: 50% D2O/50% H2O, pH 7; averaged over individual fluorines
Experimental: as §1, §2

[3] = 19F NMR titration, average association constants of PFECAs with α-CD; design: key: *: no significant association; conditions: 50% D2O/50% H2O, pH 7; averaged over individual fluorines
Experimental: as §1, §2

[4] = 19F NMR association constants of β-CD:legacy PFAS complexes; conditions: for K1:1 association constant: 1:1 β-CD:PFAS complex; for K1:1 association constant / K2:1 association constant: aqueous media, room temperature; for K2:1 association constant: 2:1 β-CD:PFAS complex; for Legacy PFAS Kassoc (1:1): 1:1 (unmarked value taken as 1:1)
Experimental: A detailed comprehensive Nuclear Magnetic Resonance (NMR) spectral study of the complexation of PFASs to β-CD was conducted, Weiss-Errico and O'Shea, J. Hazardous Mat. 2017 329, 57-65, with highlights herein. […] Competition studies with adamantane-carboxylic acid and phenol confirmed the persistence of the β-CD:PFAS complex. The aqueous solution pH, ionic strength, and the presence of humic acid have only a modest influence on the β-CD:PFAS complexes. Table 2 gives the association constants for β-CD complexes with a sample of the PFASs studied, including perfluoroheptanoic acid (PFHpA), perfluorooctanoic acid (PFOA), perfluorononanoic acid (PFNA), perfluorooctane sulfonate (PFOS), and perfluorooctanesulfonamide (PFOSA).

[5] = estimated based on association constants from PFOA and PFNA

| Compound | Average association constant with β-CD (1:1) [1] | Decrease (1:1) [1] | Emerging PFAS Kassoc (1:1) ([1]; β-CD:PFECA) | Average association constant with γ-CD [2] | Average association constant with α-CD [3] | other results |
| --- | --- | --- | --- | --- | --- | --- |
| O=C(O)C(F)(F)OC(F)(F)F [PFMOPrA, Perfluoro(3-oxabutanoic) acid] | 1.54 +/− 0.52 × 10^2 M^−1 | <10 | 1.54 +/− 0.52 × 10^2 M^−1 | * | 2.60 +/− 1.14 × 10^1 M^−1 |  |
| O=S(=O)(O)C(F)(F)C(F)(F)C(F)(F)C(F)(F)C(F)(F)C(F)(F)C(F)(F)C(F)(F)F [PFOS, perfluorooctane sulfonate] |  |  |  |  |  | K1:1 association constant [4]: 6.96 ± 0.79 × 10^5 M^−1; K2:1 association constant [4]: 5.95 ± 1.70 × 10^4 M^−1 |
| O=C(O)C(F)(F)C(F)(F)C(F)(F)C(F)(F)C(F)(F)C(F)(F)C(F)(F)C(F)(F)F [PFNA, perfluorononanoic acid] |  |  |  |  |  | K1:1 association constant [4]: 3.37 ± 0.35 × 10^5 M^−1; K2:1 association constant [4]: 7.80 ± 0.66 × 10^3 M^−1 |
| O=C(O)C(F)(F)C(F)(F)OC(F)(F)F [PFMOBA, perfluoro(4-oxapentanoic) acid] | 1.48 +/− 0.36 × 10^3 M^−1 | ~10 | 1.48 +/− 0.36 × 10^3 M^−1 | * | 3.37 +/− 1.40 × 10^1 M^−1 | association constant with β-CD [1]: 1480 M⁻¹ |
| O=C(O)C(F)(F)C(F)(F)C(F)(F)C(F)(F)C(F)(F)C(F)(F)F [PFHpA, perfluoroheptanoic acid] |  |  |  |  |  | K1:1 association constant [4]: 4.30 ± 0.85 × 10^5 M^−1; K2:1 association constant [4]: 2.30 ± 0.27 × 10^3 M^−1; Legacy PFAS Kassoc (1:1) ([4]; β-CD:legacy PFAS): 4.30 +/− 0.85 x 10^5 (1:1) M^−1; Legacy PFAS Kassoc (2:1) ([4]; β-CD:legacy PFAS, 2:1): 2.30 +/− 0.27 × 10^3 (2:1) M^−1 |
| O=C(O)C(F)(F)OC(F)(F)C(F)(F)OC(F)(F)C(F)(F)OC(F)(F)F [PFO3DA, perfluoro(3,6,9-trioxadecanoic) acid] | 3.03 +/− 1.09 × 10^3 M^−1 | ~100 | 3.03 +/− 1.09 × 10^3 (1:1) M^−1 | 7.60 +/− 2.10 × 10^2 M^−1 | 9.28 +/− 2.80 × 10^1 M^−1 | Average association constant with β-CD (2:1) [1]: 4.12 +/− 1.08 × 10^3 M^−1 |
| O=C(O)C(F)(F)OC(F)(F)C(F)(F)OC(F)(F)C(F)(F)OC(F)(F)C(F)(F)C(F)(F)C(F)(F)F [PFO3TDA, perfluoro-(3,6,9-trioxatridecanoic) acid] | 5.93 +/− 1.20 × 10^5 M^−1 |  |  | 3.48 +/− 1.50 × 10^3 M^−1 | * | Average association constant with β-CD (2:1) [1]: 1.36 +/− 0.28 × 10^5 M^−1 |
| O=C(O)C(F)(F)OC(F)(F)C(F)(F)OC(F)(F)F [PFO2HpA, perfluoro(3,6-dioxheptanoic) acid] | 4.74 +/− 2.04 × 10^2 M^−1 | ~1000 | 4.74 +/− 2.04 × 10^2 (1:1) M^−1 | 8.43 +/− 3.24 × 10^1 M^−1 | 5.34 +/− 0.48 × 10^1 M^−1 | Average association constant with β-CD (2:1) [1]: 3.87 +/− 1.40 × 10^2 M^−1; Emerging PFAS Kassoc (2:1) ([1]; β-CD:PFECA, 2:1): 3.87 +/− 1.40 × 10^2 (2:1) M^−1 |
| O=C(O)C(F)(F)C(F)(F)C(F)(F)OC(F)(C(F)(F)F)C(F)(F)F [PFDMMOBA, perfluoro(5-oxa-6-dimethylhexanoic) acid] | 2.66 +/− 0.61 × 10^4 M^−1 | ~10 | 2.66 +/− 0.61 × 10^4 M^−1 | 6.85 +/− 1.82 × 10^2 M^−1 | * | association constant with β-CD [1]: 26600 M⁻¹; stronger complexation with β-CD than PFPrOPrA ([1]; ratio of β-CD association constants, PFDMMOBA versus PFPrOPrA): ~40 × |
| O=C(O)C(F)(F)C(F)(F)C(F)(F)C(F)(F)F [PFPA, perfluoropentanoic acid] |  |  |  |  |  | Legacy PFAS Kassoc (1:1) ([4]; β-CD:legacy PFAS): 7.60 +/− 0.44 × 10^2 M^−1 |
| O=C(O)C(F)(F)C(F)(F)C(F)(F)C(F)(F)C(F)(F)C(F)(F)C(F)(F)C(F)(F)C(F)(F)F [PFDA, perfluorodecanoic acid] |  |  |  |  |  | Legacy PFAS Kassoc (1:1), estimated [4, 5]: ~10^5 (1:1) M^−1; Legacy PFAS Kassoc (2:1), estimated [4, 5]: ~10^3 (2:1) M^−1 |
| O=C(O)C(F)(F)OC(F)(F)C(F)(F)OC(F)(F)C(F)(F)C(F)(F)C(F)(F)F [PFO2DA, perfluoro(3,6-dioxadecanoic) acid] | 1.38 +/− 0.40 × 10^4 M^−1 | ~10 | 1.38 +/− 0.40 × 10^4 (1:1) M^−1 | 1.39 +/− 0.38 × 10^3 M^−1 | * | Average association constant with β-CD (2:1) [1]: 7.72 +/− 2.43 × 10^3 M^−1 |
| NS(=O)(=O)C(F)(F)C(F)(F)C(F)(F)C(F)(F)C(F)(F)C(F)(F)C(F)(F)C(F)(F)F [PFOSA, perfluorooctanesulfonamide] |  |  |  |  |  | K1:1 association constant [4]: 1.02 ± 0.16 × 10^5 M^−1; K2:1 association constant [4]: 2.70 ± 0.57 × 10^4 M^−1 |
| O=C(O)C(F)(OC(F)(F)C(F)(F)C(F)(F)F)C(F)(F)F (stereo not drawn) [PFPrOPrA, Perfluoro(2-methyl-3-oxahexanoic) acid] | 7.45 +/− 4.27 × 10^2 M^−1 | ~100 | 7.45 +/− 4.27 × 10^2 M^−1 | * | 2.36 +/− 1.10 × 10^2 M^−1 | association constant with β-CD [1]: 745 M⁻¹ |
